Test results as given in US7038074B2, “Arginine mimetics as factor Xa inhibitors” (Wilex AG, priority 2000, dated 2006).
pKi: −log10 of the molar value. “Also recorded” adds a separate entry of the source. Where two headings read alike, the source gives them in different places.

Experiments:
[1] = biological target: factor Xa; settings: prior art, Gabriel et al. 1998; cited from earlier work
[2] = tested on: factor Xa; assay: Determining the inhibitor constants (Ki, Dixon), factor Xa; type: biochemical, bovine or human
Experimental: (§1) The measurements were carried out at 25° C. on a microplate reader (MR 5000, Dynatech, Denkendorf, Germany). The test medium consisted of 200 μl of Tris buffer (0.05 M; 0.154 M NaCl, 5% ethanol, pH 8.0), 25 μl of aqueous substrate solution and 50 μl of enzyme solution. Two concentrations of the substrate and five concentrations of the inhibitor were used. Three minutes after adding the enzyme, 25 μl of acetic acid (50%) were added in order to quench the reaction and the optical density was measured at 405 nm. The Ki values were calculated in accordance with Dixon (M. Dixon (1953), Biochem. J. 55, 170–171) using a linear regression. The Ki values given in FIGS. 2 and 3 are means of at least three determinations.
(§2) The following enzymes and the corresponding substrates were used at the given final concentrations: bovine thrombin, prepared in accordance with Walsmann (P. Walsmann (1968), Pharmazie 23, 401–402) (2 262 U/mg, final concentration 0.45 U/ml), substrate MeSO2-D-hexahydrotyrosyl-Gly-Arg-pNA (final concentration 0.18 and 0.09 mM); bovine factor Xa (5 U/vial, 0.11 U/ml; Diagnostic Reagents Ltd., Thame, UK), substrate MeSO2-D-Nle-Gly-Arg-pNA (0.36 and 0.18 mM); human factor Xa (0.18 μg/ml; Kordia Lab. Supplies, Leiden, Netherlands), substrate as for bovine factor Xa human plasmin (0.67 CTA U/mg, 0.06 CTA U/ml; Behringwerke AG, Marburg, Germany), substrate Tos-Gly-Pro-Lys-pNA (0.18 and 0.09 mM); human uPA (500 000 U/vial, final concentration 150 U/ml; Ribosepharm GmbH Haan, Germany), substrate Bz-βAla-Gly-Arg-pNA (0.18 and 0.09 mM); bovine pancreas trypsin (42 U/mg, 0.0038 U/ml; Serva, Heidelberg, Germany), substrate MeSO2-D-hexahydrotyrosyl-Gly-Arg-pNA (0.18 and 0.06 mM).

[3] = biological target: T1, human uPA (Homo sapiens, UniProt P00749); assay: Determining the inhibitor constants, uPA; type: biochemical
T1 construct: purchased Ribosepharm GmbH Haan, Germany
Experimental: as §1, §2

[4] = biological target: T2, bovine pancreas trypsin (Bos taurus, UniProt P00760); assay: Determining the inhibitor constants, trypsin; type: biochemical
T2 construct: purchased Serva, Heidelberg, Germany; host or cells: bovine pancreas
T2 sequence (P00760 24-246): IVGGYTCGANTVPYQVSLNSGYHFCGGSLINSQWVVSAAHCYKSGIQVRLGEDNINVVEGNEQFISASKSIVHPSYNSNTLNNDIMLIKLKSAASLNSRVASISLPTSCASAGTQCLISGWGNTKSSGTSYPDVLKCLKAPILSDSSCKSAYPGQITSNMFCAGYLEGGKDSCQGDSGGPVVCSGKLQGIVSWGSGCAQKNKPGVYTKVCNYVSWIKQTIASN
Experimental: as §1, §2

[5] = biological target: T3, bovine thrombin (Bos taurus, UniProt P00735); assay: Determining the inhibitor constants, thrombin; type: biochemical
T3 construct: converts the zymogen prothrombin into its active form thrombin; made in house
Experimental: as §1, with “determinations. […]” for “determinations.”

[6] = Chemical and enzymic stability, stability towards acids; type: physicochemical; settings: for example stomach acids
[7] = biological target: T4, factor Xa (UniProt P00743); assay: Determining the inhibitor constants (Ki, Dixon), factor Xa; type: biochemical, bovine or human; settings: for pKi: 25° C., pH 8.0, species of factor Xa not given
T4 construct: Ki factor Xa; other: 25° C., pH 8.0; factor Xa activity of the D-enantiomer relative to the L-enantiomer 27; other: compound 28 versus compound 27; other: relative to compound 31
Experimental: as §1, §2

SMILES | inhibitory effect on factor Xa (in words) [2] | inhibition of uPA (in words) [3] | inhibition of / affinity for trypsin (in words) [4] | other results
CCOC(=O)C(Cc1ccc(C(=N)N)cc1)NC(=O)CNS(=O)(=O)c1ccc(C(=N)N)cc1 (racemic) [Compound 2, N^α-4-amidinobenzenesulfonylglycyl-D,L-4-amidinophenylalanine ethyl ester] | – | – | – | pKi [1]: 6.30
Cl.N=C(N)c1cccc(CC(NC(=O)OC23CC4CC(CC(C4)C2)C3)C(=O)O)c1 (racemic) [Compound 15, N-1-adamantyloxylcarbonyl-D,L-3-amidinophenylalanine hydrochloride] | does not show any important differences | – | – | –
COC(=O)C(Cc1ccc(NC(=N)N)cc1)NC(=O)OC12CC3CC(CC(C3)C1)C2.Cl (racemic) [Compound 26, N-1-adamantyloxycarbonyl-D,L-4-guanidinophenylalanine methyl ester hydrochloride] | dramatic loss in inhibitory activity | dramatic loss in inhibitory activity | dramatic loss in inhibitory activity | inhibition of thrombin (in words) [5]: dramatic loss in inhibitory activity
COC(=O)C(Cc1cccc(C(=N)N)c1)NC(=O)NC12CC3CC(CC(C3)C1)C2.Cl (racemic) [Compound 12, N-1-adamantylaminocarbonyl-D,L-3-amidinophenylalanine methyl ester hydrochloride] | – | dramatic effects on the inhibition of uPA | – | stability (acids; chemical and enzymic) [6]: desirable stability towards acids
COC(=O)C(Cc1cccc(C(=N)N)c1)NC(=O)OC12CC3CC(CC(C3)C1)C2.Cl (racemic) [Compound 11, N-1-adamantyloxycarbonyl-D,L-3-amidinophenylalanine methyl ester hydrochloride] | – | – | – | selectivity for factor Xa vis-à-vis uPA, thrombin and trypsin [2]: remarkable selectivity; inhibitory effect on factor Xa (in words) ([2]; hydrochloride): significantly increased inhibitory effect; also recorded: submicromolar inhibition
COC(=O)[C@H](Cc1cccc(C(=N)N)c1)NC(=O)OC12CC3CC(CC(C3)C1)C2.Cl [Compound 27, N-1-adamantyloxycarbonyl-L-3-amidinophenylalanine methyl ester hydrochloride] | – | only capable of recognizing the L-enantiomer | almost identical affinity | –
Cl.N=C(N)c1cccc(CC(NC(=O)OC23CC4CC(CC(C4)C2)C3)C(=O)N2CCCCC2)c1 [Compound 17, N-1-adamantyloxycarbonyl-D,L-3-amidinophenylalanine piperidide hydrochloride] | does not show any important differences | – | – | –
COC(=O)[C@@H](Cc1cccc(C(=N)N)c1)NC(=O)OC12CC3CC(CC(C3)C1)C2.Cl [Compound 28, N-1-adamantyloxycarbonyl-D-3-amidinophenylalanine methyl ester hydrochloride] | – | only capable of recognizing the L-enantiomer | almost identical affinity | pKi [7]: 6.41; factor Xa activity of the D-enantiomer relative to the L-enantiomer 27 ([7]; compound 28 versus compound 27): about 10 times
Cl.N=C(N)c1cccc(C[C@@H](NC(=O)OC23CC4CC(CC(C4)C2)C3)C(=O)NCCc2ccccc2)c1 [Compound 31, N-1-adamantyloxycarbonyl-D-3-amidinophenylalanine-(2-phenyl)-1-ethylamine hydrochloride] | – | – | – | pKi [7]: 7.13; inhibitory effect on factor Xa (in words) ([2]; hydrochloride): strongest inhibitor; inhibitory effect on factor Xa (in words) ([2]; listed as N-1-adamantyloxycarbonyl-D-3-amidinophenylalanine-(2-phenyl)-1-ethylamide, hydrochloride): very powerful inhibitory effect
N=C(N)c1cccc(C[C@@H](NC(=O)NC23CC4CC(CC(C4)C2)C3)C(=O)NCCc2ccccc2)c1 [Compound 32, N-(1-adamantylaminocarbonyl)-D-3-amidinophenylalanine-(2-phenyl)-1-ethylamide] | even more powerful inhibitory effect | – | – | factor by which FXa is inhibited better than by compound 31 ([7]; relative to compound 31): 3
